ChEMBL document CHEMBL1131814, “Structure-activity relationship of N-methyl-N-aralkyl-peptidylamines as novel N-type calcium channel blockers” (Bioorg Med Chem Lett, 1999)

System: Mus musculus
Assay: Percentage of protection from audiogenic tonic seizures in DBA/2 mice after intravenous administration at a dose of 30 mg/kg
Type: functional

**Q.** Which Protection does the source give for CC(C)C[C@@H](C(=O)N[C@@H](Cc1ccc(OC(=O)c2ccccc2)cc1)C(=O)NC(C)(C)C)N(C)Cc1ccc(C(C)(C)C)cc1 here?
**A.** The Protection was 60%.

**Q.** How did the Protection turn out when COc1ccc(CN(C)[C@@H](CC(C)C)C(=O)N[C@@H](Cc2ccc(OC(=O)c3ccccc3)cc2)C(=O)NC(C)(C)C)cc1 was run?
**A.** The Protection was 100%.

**Q.** Which Protection does the source give for CC(C)C[C@@H](C(=O)N[C@@H](Cc1ccc(OC(=O)c2ccccc2)cc1)C(=O)NC(C)(C)C)N(C)CC1CCCCC1 here?
**A.** The Protection was 100%.

**Q.** For CC(C)C[C@@H](C(=O)N[C@@H](Cc1ccc(OC(=O)c2ccccc2)cc1)C(=O)NC(C)(C)C)N(C)Cc1ccco1, which Protection is on record?
**A.** Its Protection is 60%.

**Q.** CC(C)C[C@@H](C(=O)N[C@@H](Cc1ccc(OC(=O)c2ccccc2)cc1)C(=O)NC(C)(C)C)N(C)Cc1ccc(N(C)C)cc1 was tested. Which Protection did it give?
**A.** The Protection was 80%.

System: Mus musculus
Assay: Percentage of protection from audiogenic tonic seizures in DBA/2 mice after intravenous administration at a dose of 10 mg/kg
Type: functional

**Q.** How did the Protection turn out when COc1ccc(CN(C)[C@@H](CC(C)C)C(=O)N[C@@H](Cc2ccc(OC(=O)c3ccccc3)cc2)C(=O)NC(C)(C)C)cc1 was run?
**A.** The Protection was 40%.

**Q.** How did the Protection turn out when CC(C)C[C@@H](C(=O)N[C@@H](Cc1ccc(OC(=O)c2ccccc2)cc1)C(=O)NC(C)(C)C)N(C)CC1CCCCC1 was run?
**A.** Its Protection is 20%.

Target: Voltage-dependent N-type calcium channel subunit alpha-1B (Homo sapiens, UniProt Q00975)
Assay: Inhibition of N-type calcium channels in IMR-32 human neuroblastoma cells
Type: cell-based

Chain of Voltage-dependent N-type calcium channel subunit alpha-1B (Q00975 whole entry): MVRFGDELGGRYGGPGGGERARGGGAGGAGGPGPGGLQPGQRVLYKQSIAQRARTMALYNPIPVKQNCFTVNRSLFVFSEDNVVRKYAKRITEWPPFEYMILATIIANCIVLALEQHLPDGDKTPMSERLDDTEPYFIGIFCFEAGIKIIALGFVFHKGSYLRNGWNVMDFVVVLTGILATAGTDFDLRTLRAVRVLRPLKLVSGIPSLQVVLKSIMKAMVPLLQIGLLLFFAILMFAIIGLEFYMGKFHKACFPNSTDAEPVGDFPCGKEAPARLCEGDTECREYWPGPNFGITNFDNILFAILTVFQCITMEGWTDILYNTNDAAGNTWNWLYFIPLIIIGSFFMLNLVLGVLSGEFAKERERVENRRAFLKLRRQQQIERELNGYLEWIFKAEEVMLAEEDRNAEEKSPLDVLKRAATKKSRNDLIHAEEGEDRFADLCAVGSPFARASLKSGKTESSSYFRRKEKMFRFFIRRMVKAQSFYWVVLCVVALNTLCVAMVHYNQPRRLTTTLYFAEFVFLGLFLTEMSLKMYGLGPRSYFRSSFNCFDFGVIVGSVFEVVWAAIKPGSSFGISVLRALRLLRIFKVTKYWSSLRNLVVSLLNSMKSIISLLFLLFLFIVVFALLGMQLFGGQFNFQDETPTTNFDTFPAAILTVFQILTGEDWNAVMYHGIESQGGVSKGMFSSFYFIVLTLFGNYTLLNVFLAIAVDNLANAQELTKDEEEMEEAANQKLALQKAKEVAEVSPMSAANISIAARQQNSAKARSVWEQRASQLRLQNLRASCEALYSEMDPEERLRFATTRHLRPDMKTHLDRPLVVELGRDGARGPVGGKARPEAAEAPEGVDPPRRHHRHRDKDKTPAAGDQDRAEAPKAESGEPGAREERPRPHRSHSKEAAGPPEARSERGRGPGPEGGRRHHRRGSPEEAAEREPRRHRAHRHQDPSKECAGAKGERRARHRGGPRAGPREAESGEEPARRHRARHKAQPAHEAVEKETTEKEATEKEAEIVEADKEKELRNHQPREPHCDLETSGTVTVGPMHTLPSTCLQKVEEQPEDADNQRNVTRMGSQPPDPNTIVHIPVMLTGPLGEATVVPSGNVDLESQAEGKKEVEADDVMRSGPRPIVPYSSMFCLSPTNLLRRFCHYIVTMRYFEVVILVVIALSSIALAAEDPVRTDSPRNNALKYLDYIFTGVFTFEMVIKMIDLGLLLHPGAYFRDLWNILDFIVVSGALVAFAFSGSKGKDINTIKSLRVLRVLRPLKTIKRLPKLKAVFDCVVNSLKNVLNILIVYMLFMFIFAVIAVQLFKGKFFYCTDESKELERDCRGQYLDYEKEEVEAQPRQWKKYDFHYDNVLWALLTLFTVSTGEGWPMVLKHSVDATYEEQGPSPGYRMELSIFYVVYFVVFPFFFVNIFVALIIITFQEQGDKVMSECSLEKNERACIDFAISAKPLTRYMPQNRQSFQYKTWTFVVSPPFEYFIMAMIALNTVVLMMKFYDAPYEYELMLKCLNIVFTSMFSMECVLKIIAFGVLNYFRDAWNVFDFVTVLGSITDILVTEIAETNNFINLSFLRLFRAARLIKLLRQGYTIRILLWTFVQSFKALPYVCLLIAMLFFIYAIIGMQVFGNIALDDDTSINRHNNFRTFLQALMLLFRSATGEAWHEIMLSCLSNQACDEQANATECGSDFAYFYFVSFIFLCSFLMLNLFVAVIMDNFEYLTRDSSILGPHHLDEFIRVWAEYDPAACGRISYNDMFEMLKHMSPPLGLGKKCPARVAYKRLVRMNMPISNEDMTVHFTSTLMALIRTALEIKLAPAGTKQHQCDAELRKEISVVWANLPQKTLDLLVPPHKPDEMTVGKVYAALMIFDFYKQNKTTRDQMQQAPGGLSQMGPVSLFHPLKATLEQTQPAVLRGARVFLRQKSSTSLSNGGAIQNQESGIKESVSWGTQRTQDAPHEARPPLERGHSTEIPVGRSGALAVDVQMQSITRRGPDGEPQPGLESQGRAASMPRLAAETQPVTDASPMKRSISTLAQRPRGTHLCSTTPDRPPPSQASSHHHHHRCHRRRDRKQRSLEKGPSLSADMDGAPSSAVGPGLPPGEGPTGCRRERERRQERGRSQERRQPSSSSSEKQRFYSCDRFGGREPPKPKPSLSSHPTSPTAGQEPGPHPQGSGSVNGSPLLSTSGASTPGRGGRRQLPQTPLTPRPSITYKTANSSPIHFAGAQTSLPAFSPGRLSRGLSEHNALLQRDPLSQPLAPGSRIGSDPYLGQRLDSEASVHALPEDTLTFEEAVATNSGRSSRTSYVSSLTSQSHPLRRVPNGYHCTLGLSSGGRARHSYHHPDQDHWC

**Q.** CC(C)C[C@@H](C(=O)N[C@@H](Cc1ccc(OC(=O)c2ccccc2)cc1)C(=O)NC(C)(C)C)N(C)Cc1ccc(Cl)cc1 was tested. Which IC50 did it give?
**A.** Its IC50 is 230 nM.

**Q.** How did the IC50 turn out when CC(C)C[C@@H](C(=O)N[C@@H](Cc1ccc(OC(=O)c2ccccc2)cc1)C(=O)NC(C)(C)C)N(C)Cc1ccc(C(C)(C)C)cc1 was run?
**A.** The IC50 was 36 nM.

**Q.** For COc1ccc(CN(C)[C@@H](CC(C)C)C(=O)N[C@@H](Cc2ccc(OC(=O)c3ccccc3)cc2)C(=O)NC(C)(C)C)cc1, which IC50 is on record?
**A.** The IC50 was 500 nM.

**Q.** How did the IC50 turn out when CC(C)C[C@@H](C(=O)N[C@@H](Cc1ccc(OC(=O)c2ccccc2)cc1)C(=O)NC(C)(C)C)N(C)CCCc1ccccc1 was run?
**A.** The IC50 was 1900 nM.

**Q.** With CC(C)C[C@@H](C(=O)N[C@@H](Cc1ccc(OC(=O)c2ccccc2)cc1)C(=O)NC(C)(C)C)N(C)CC1CCCCC1 as the compound, how does the IC50 read?
**A.** Its IC50 is 680 nM.

**Q.** Which IC50 does the source give for CC(C)C[C@@H](C(=O)N[C@@H](Cc1ccc(OC(=O)c2ccccc2)cc1)C(=O)NC(C)(C)C)N(C)Cc1ccccc1Cl here?
**A.** The IC50 was 560 nM.

**Q.** For CC(C)C[C@@H](C(=O)N[C@@H](Cc1ccc(OC(=O)c2ccccc2)cc1)C(=O)NC(C)(C)C)N(C)Cc1ccccc1, which IC50 is on record?
**A.** The IC50 was 360 nM.

**Q.** For CC(C)C[C@@H](C(=O)N[C@@H](Cc1ccc(OC(=O)c2ccccc2)cc1)C(=O)NC(C)(C)C)N(C)Cc1cccnc1, which IC50 is on record?
**A.** The IC50 was 1700 nM.

**Q.** CC(C)C[C@@H](C(=O)N[C@@H](Cc1ccc(OC(=O)c2ccccc2)cc1)C(=O)NC(C)(C)C)N(C)Cc1cccc(Cl)c1 was tested. Which IC50 did it give?
**A.** Its IC50 is 1000 nM.

**Q.** With CC(C)C[C@@H](C(=O)N[C@@H](Cc1ccc(OC(=O)c2ccccc2)cc1)C(=O)NC(C)(C)C)N(C)Cc1ccc(O)cc1 as the compound, how does the IC50 read?
**A.** Its IC50 is 1000 nM.

**Q.** CC(C)C[C@@H](C(=O)N[C@@H](Cc1ccc(OC(=O)c2ccccc2)cc1)C(=O)NC(C)(C)C)N(C)Cc1ccco1 was tested. Which IC50 did it give?
**A.** The IC50 was 1600 nM.

**Q.** CC(C)C[C@@H](C(=O)N[C@@H](Cc1ccc(OC(=O)c2ccccc2)cc1)C(=O)NC(C)(C)C)N(C)CCc1ccccc1 was tested. Which IC50 did it give?
**A.** The IC50 was 1700 nM.

**Q.** With CC(C)C[C@@H](C(=O)N[C@@H](Cc1ccc(OC(=O)c2ccccc2)cc1)C(=O)NC(C)(C)C)N(C)Cc1ccc(N(C)C)cc1 as the compound, how does the IC50 read?
**A.** Its IC50 is 280 nM.

**Q.** For CC(C)C[C@@H](C(=O)N[C@@H](Cc1ccc(OC(=O)c2ccccc2)cc1)C(=O)NC(C)(C)C)N(C)Cc1ccc(Br)cc1, which IC50 is on record?
**A.** The IC50 was 130 nM.
